Reference: article PMC10460844, “Real‐Time Monitoring of Multitarget Antimicrobial Mechanisms of Peptoids Using Label‐Free Imaging with Optical Diffraction Tomography” (Advanced Science, 2023)
Square brackets hold non-standard residues; d marks the D form. Peptide text beside a SMILES is read from it. Gly(N(CH2)2(3-indolyl)) = O=C(O)CNCCc1c[nH]c2ccccc12; Nspe = C[C@H](NCC(=O)O)c1ccccc1; Nlys = NCCCCNCC(=O)O

Key:
[1] = SAXS of peptoid self-assembly in aqueous environment; assay type: physicochemical; conditions: for self-assembly state in aqueous solution: aqueous environment
Description: Prior to the experiment, peptoids were dissolved in Tris buffer (50 mM, pH 7.4). This peptoid stock solution (5 mg mL^−1) was diluted as needed. Unilamellar lipid vesicles were prepared using synthetic DMPC, DMPG, and DMPE‐PEG at a 75:22.5:2.5 molar ratio. The lipids were first dissolved in a 1:3 (v/v) methanol:chloroform solution. To make a lipid film, the organic solvents were removed completely under vacuum using a rotary evaporator with a Vacuubrand vacuum pump. The resulting lipid film was hydrated at 35 °C using Tris buffer (50 mM, pH 7.4). After hydration, the dispersion was sonicated for 15 min to promote the formation of smaller unilamellar vesicles. This was followed by the extrusion of lipid vesicles through a 100 nm pore diameter polycarbonate filter (>21 times) using an Avanti mini‐extruder fitted with two 1 mL airtight syringes. Immediately before the SAXS data collection, a peptoid solution with the adequate concentration for the target lipid:peptoid ratio was mixed 1:1 with the lipid solution (5 mg mL^−1) using a micropipette. SAXS experiments were performed at the automated BM29 bioSAXS beamline at the European Synchrotron Radiation Facility (ESRF) in Grenoble, France.^[ [47] ^] […] All experiments were conducted at 37 °C. The data set was calibrated to an absolute intensity scale using water as a primary standard. Samples (45 µL) were run through a capillary using the flow mode of the automated sample changer.^[ [48] ^] SAXS data was collected in ten successive frames of 0.5 s each to monitor radiation damage, and the data reduction was carried out using BioXTAS RAW program.^[ [49] ^]
All scattering models were implemented and fitted to the experimental SAXS data using the QtiSAS software.^[ [50] ^]

[2] = Protein and DNA aggregation assay (thioflavin T); assay type: biochemical; conditions: 29 25 µM, protein 500 µg mL^−1, gDNA 50 ng mL^−1, Th T 25 µM, 37 °C 1 h, ex 450 / em 485 nm
Description: bacteria were pelleted at 4,000 rpm for 10 minutes at 8 °C. The supernatant was removed and the pellet was suspended in 2 mL of PBS buffer. This suspension was transferred to a 15 mL conical tube and cooled on ice. The culture was sonicated for 5 sec and cooled again for 55 sec. This cycle was repeated 15 times. The lysate was centrifuged at 4,000 rpm for 20 minutes at 8 °C. The supernatant was transferred into a fresh 2 mL Eppendorf tube and stored at -80 °C. Protein quantification was performed using TaKaRa Bradford Protein Assay Kit according to the manufacturer’s instructions.
DNA extraction and quantification
DNA extraction was performed using TaKaRa MiniBEST Bacteria Genomic DNA Extraction Kit Ver. 3.0 according to the manufacturer’s instructions.
Protein and DNA aggregation assay
The flocculation of the proteins and DNA caused by peptoids was confirmed by the change in the fluorescent intensity of thioflavin T (Th T) that detects aggregated proteins and double stranded DNA. The appropriate combination of 500 μg/mL of protein solution, 50 ng/mL of genomic DNA, 25 μM of Th T, and 25 μM of peptoid 29 were added into a black 96-well plate in triplicate and incubated at 37 °C for an hour. After incubation, the fluorescence was measured using a microplate reader (excitation wavelength = 450 nm, emission wavelength = […]
[1] […]

E. coli ATCC 25922 = assay: Killing kinetics; assay type: cell-based; conditions: 4 × MIC, E. coli ATCC 25922, MHB2, 37 °C, CFU counting, triplicates
Description: structure of peptoids. SAXS data on peptoids in aqueous environment at different peptoid concentrations (indicated in legends), plotted together with best fit. a) 11 b) 29.
14. In vitro biological assays
The kinetics of antimicrobial activity against E. coli (ATCC 25922) were assessed at a […]
Briefly, an overnight culture of bacteria was diluted at mid log-phase bacteria (2–5 × 10^5 cfu/mL) and incubated with peptoid with desired concentration in MHB2. The bacterial suspension was added to a 96-well polypropylene u- bottomed plate containing the peptoid. The plate was incubated without shaking at 37 °C for 4 h. Samples (20 μl) were taken at time 0.5, 1, 2 and 4 h and diluted in ice PBS buffer from which 100 μl was plated on LB agar plates. The plates were incubated for 18–24 hours at 37 °C and colony forming units (CFU) were counted. The experiment was conducted triplicates, and a curve was plotted between CFU and time (h).
The ability of peptoids to increase the permeability of the outer membrane of Gram-negative bacteria was determined by measuring the incorporation of the NPN fluorescent dye into the outer membrane of E. coli ATCC 25922. Bacterial cells were suspended to a final concentration of OD600 = 0.05 in 5 mM HEPES buffer, pH 7.2, containing 5 mM KCN. Then […]
(1 picture or pasted object on this page, not shown here)

[3] = SAXS, cylindrical α-helical bundle model, 5 mg mL^−1

SMILES	self-assembly state in aqueous solution ([1]; SAXS, 5 mg mL^−1)	fraction of dimers [1, 3] [%]	fraction of monomers [1, 3] [%]	fraction of trimers [1, 3] [%]	Th T fluorescence of protein and protein/gDNA samples [2]	fraction of big clusters ([1]; SAXS fit, depending on concentration)	radius of gyration ([1]; SAXS, Tris buffer 50 mM pH 7.4, 37 °C, random Gaussian chain model) [Å]	time to complete eradication of bacteria (E. coli ATCC 25922) [h]
C[C@@H](c1ccccc1)N(CC(=O)N(CCCCN)CC(=O)N(CC(=O)N(CC(=O)N(CCCCN)CC(=O)N(CC(=O)N(CC(=O)N(CCCCN)CC(=O)N(CCc1c[nH]c2ccccc12)CC(=O)N(CCc1c[nH]c2ccccc12)CC(N)=O)[C@@H](C)c1ccccc1)[C@@H](C)c1ccccc1)[C@@H](C)c1ccccc1)[C@@H](C)c1ccccc1)C(=O)CN(C(=O)CNCCCCN)[C@@H](C)c1ccccc1 [peptoid 11] (H-[Nlys][Nspe][Nspe][Nlys][Nspe][Nspe][Nlys][Nspe][Nspe][Nlys][Gly(N(CH2)2(3-indolyl))][Gly(N(CH2)2(3-indolyl))]-NH2)	larger defined nanostructures	10	30	60	–	–	–	–
C[C@@H](c1ccccc1)N(CC(=O)N(CCCCN)CC(=O)N(CCc1c[nH]c2ccccc12)CC(=O)N(CCc1c[nH]c2ccccc12)CC(N)=O)C(=O)CN(CCCCN)C(=O)CN(CCCCN)C(=O)CN(C(=O)CN(C(=O)CN(CCCCN)C(=O)CN(C(=O)CN(C(=O)CNCCCCN)[C@@H](C)c1ccccc1)[C@@H](C)c1ccccc1)[C@@H](C)c1ccccc1)[C@@H](C)c1ccccc1 [peptoid 29] (H-[Nlys][Nspe][Nspe][Nlys][Nspe][Nspe][Nlys][Nlys][Nspe][Nlys][Gly(N(CH2)2(3-indolyl))][Gly(N(CH2)2(3-indolyl))]-NH2)	remained monomeric and unstructured	–	–	–	significant increases in fluorescent emission	0.003–0.008	10	4
